Assay type in all cases: physicochemical
The nature of data set [1]: Stability in D2O in the presence of butylamine or triethylamine, tracked by 1H NMR. On the procedure: N-Acetylcysteine trisulfide (26.5 mg, 66 μmol) was dissolved in 600 μL of D2O. Butylamine (5.0 mg, 68 μmol) was added, and the ^1H NMR spectra were taken periodically to track degradation.
N-Acetylcysteine trisulfide (26.5 mg, 66 μmol) was dissolved in 600 μL of D2O. Triethylamine (8.0 mg, 79 μmol) was added, and the ^1H NMR spectra were taken periodically to track degradation.
Cysteine trisulfide (5.5 mg, 20 μmol) was added to 600 μL of D2O. The solution was filtered to remove undissolved particles. […] The ^1H NMR spectra were taken periodically to track degradation.
Cysteine trisulfide (4.3 mg, 16 μmol) was added to 600 μL of D2O. The solution was filtered to remove undissolved particles. […] The ^1H NMR spectra were taken periodically to track degradation.
N-Acetylcysteine tetrasulfide (17.2 mg, 44 μmol) was dissolved in 600 μL of D2O. Butylamine (9.9 mg, 135 μmol) was added, and the ^1H NMR spectra were taken periodically to track degradation.
N-Acetylcysteine tetrasulfide (17.2 mg, 44 μmol) was dissolved in 600 μL of D2O. Triethylamine (13.5 mg, 135 μmol) was added, and the ^1H NMR spectra were taken periodically to track degradation.

Data set [2] is described as follows: Stability in the presence of acetonitrile, benzamide, zinc sulfate or iron sulfate, or in methanol-d4 (1H NMR). On the procedure:
N-Acetylcysteine trisulfide (26.5 mg, 66 μmol) was dissolved in 600 μL of D2O. Acetonitrile (3.0 mg, 73 μmol) was added, and the ^1H NMR spectra were taken periodically to track degradation.
N-Acetylcysteine trisulfide (31.4 mg, 78 μmol) was dissolved in 600 μL of D2O. Benzamide (9.4 mg, 78 μmol) was added, and the ^1H NMR spectra were taken periodically to track degradation.
N-Acetylcysteine trisulfide (15.0 mg, 38 μmol) was dissolved in 600 μL of D2O. ZnSO4 (11.8 mg, 73 μmol) was added, and the ^1H NMR spectra were taken periodically to track degradation.
N-Acetylcysteine trisulfide (15.0 mg, 38 μmol) was dissolved in 600 μL of D2O. FeSO4·7H2O (11.6 mg, 41 μmol) was added, and the ^1H NMR spectra were taken periodically to track degradation.
N-Acetylcysteine trisulfide (32.1 mg, 80 μmol) was dissolved in 600 μL of CD3OD. The ^1H NMR spectra were taken periodically to track degradation.
Cysteine trisulfide (5.1 mg, 19 μmol) was added to 600 μL of D2O. Solution was filtered to remove undissolved particles. […] The ^1H NMR spectra were taken periodically to track degradation.
Cysteine trisulfide (6.8 mg, 25 μmol) was added to 600 μL of D2O. Solution was filtered to remove undissolved particles. […] The ^1H NMR spectra were taken periodically to track degradation.

Data set [3] in a line: Stability in nonbuffered D2O at room and elevated temperature (1H NMR). The protocol:
N-Acetylcysteine trisulfide (24.3 mg, 61 μmol) was dissolved in 500 μL of D2O and placed in a 40 °C oil bath. The ^1H NMR spectra were taken periodically to track degradation.
N-Acetylcysteine trisulfide (24.3 mg, 61 μmol) was dissolved in 500 μL of D2O and placed in a 60 °C oil bath. The ^1H NMR spectra were taken periodically to track degradation.
N-Acetylcysteine tetrasulfide (8.0 mg, 21 μmol) was dissolved in 600 μL of D2O. The ^1H NMR spectra were taken periodically to track degradation.
N-Acetylcysteine tetrasulfide (10.0 mg, 26 μmol) was dissolved in 600 μL of D2O and placed in a 40 °C oil bath. The ^1H NMR spectra were taken periodically to track degradation.

Data set [4] is described as follows: Kinetics of degradation of trisulfides in the presence of a thiol (1H NMR). To be noted: water, NAC added, vial uncapped to allow H2S to evaporate, after 1 day. The protocol:
To investigate the rate of reaction of trisulfides with an added thiol and to characterize the degradation products, 5 mM trisulfides of cysteine, glutathione, and NAC were separately added to […] For instance, 5 equiv of cysteine was added to cysteine trisulfide and 5 equiv of NAC was added to NAC trisulfide. The pH was buffered to a pH of 7.0 to ensure that each trisulfide was soluble and to closely mimic in vivo pH.
Cysteine trisulfide (0.7 mg, 2.6 μmol) was dissolved in 500 μL of D2O buffered to pH 7.0, yielding a 5 mM solution. Cysteine (1.5 mg, 12.4 μmol) was added, and the ^1H NMR spectra were periodically obtained to track degradation.
Glutathione trisulfide (1.6 mg, 2.6 μmol) was added to 500 μL of D2O buffered to a pH of 7.0, yielding a 5 mM solution. Glutathione (3.8 mg, 12.4 μmol) was added, and the ^1H NMR spectra were obtained periodically to track degradation.
N-Acetylcysteine trisulfide (1.0 mg, 2.6 μmol) was dissolved in 500 μL of D2O buffered to pH 7.0, yielding a 5 mM solution. N-Acetylcysteine (2.1 mg, 12.4 μmol) was added, and the ^1H NMR spectra were obtained periodically to track degradation.
Cysteine trisulfide (0.7 mg, 2.6 μmol) was dissolved in 500 μL of D2O buffered to pH 7.0, yielding a 5 mM solution. tert-Butanol (0.8 μL, 2.6 μmol) was added as an internal standard. […]

The nature of the next data set: Solubility observations. To be noted: CDCl3 and acetone.
Data set [5] in a line: Equilibrium between di-, tri- and tetrasulfides in the presence of elemental sulfur (1H NMR). To be noted: water with elemental sulfur, 40 °C, after 15 days, no amine.
Experimental: To test this hypothesis, a reaction was completed in D2O with elemental sulfur, NAC disulfide, and butylamine.
To understand why the degradation leveled off, NAC trisulfide was dissolved in water, elemental sulfur was added, and the contents were heated to 40 °C.
N-Acetylcysteine disulfide (9.3 mg, 23 μmol) was dissolved in 600 μL of D2O. Elemental sulfur (6.8 mg, 0.21 mmol) and butylamine (18.5 mg, 0.25 mmol) were added, and the ^1H NMR spectra were periodically obtained to track the equilibrium.

Consider one molecule from paper PMC8992272, “Stabilities of Three Key Biological Trisulfides with Implications for Their Roles in the Release of Hydrogen Sulfide and Bioaccumulation of Sulfane Sulfur” (ACS Omega, 2022).

Read-outs that look alike come from different tables or passages of the source.

With `CC(=O)N[C@@H](CSSSC[C@H](NC(C)=O)C(=O)O)C(=O)O` [NAC trisulfide, N-Acetylcysteine Trisulfide], the degraded in data set [1] (1 equiv butylamine, D2O, after 1 h) came to 43%; in data set [1] (1 equiv butylamine, D2O, after 24 h) it was 92%; in data set [1] (1 equiv triethylamine, D2O, after 1 h), 14%; in data set [1] (1 equiv triethylamine, D2O, after 24 h) it was 87%; in data set [3] (60 °C, in 3 days), 74%. In addition, the half-life in data set [1] (D2O with butylamine, in the presence of butylamine (abstract), read-out: half-life) is 53 min; in data set [1] (D2O with butylamine, in the presence of butylamine, D2O, early data points, read-out: estimated half-life of degradation (converted)), 56.4 min; in data set [1] (D2O with triethylamine, in the presence of triethylamine, D2O, early data points, read-out: estimated half-life of degradation (converted)), 132 min. The “time to reach equilibrium” value in data set [1] (addition of butylamine or triethylamine) is listed as “less than 5 h”. Moreover, in data set [1] (both reactions (butylamine, triethylamine), D2O), the “tetrasulfide observed as product” value was less than 3%. The degradation entry in data set [2] (acetonitrile and benzamide added, D2O, after 8 days) was “No degradation”; in data set [2] (methanol-d4, after 8 days), “no observable degradation”; in data set [3] (water, 40 °C oil bath, after 10 days), “No noticeable degradation”. Moreover, the stability result in data set [2] (zinc sulfate and iron sulfate in D2O, 11 days) was “stable”. Further, the trisulfide remaining result in data set [4] is “no NAC trisulfide was observed”. Further, the solubility entry in “Solubility observations” is listed as “very limited solubility”. Moreover, the disulfide formed in data set [5] worked out at 12%. Moreover, in data set [5], the tetrasulfide formed stood at 11%.
